This note sets out measurements from patent publication US20060089371A1, “Phenyl or heteroaryl amino alkane derivatives as ip receptor antagonist” (Bayer HealthCare AG, priority 2002, published 2006).

One data set addresses T1, IP receptor (Homo sapiens, UniProt P43119).
T1 construct: one million cells in 160 μl aliquot of cell suspension were put in a well of 96 well plate; host or cells: HEL 92.1.7 human erythroleukemia cells (whole cells)
Put plainly: IP receptor binding/cAMP in HEL cells ([3H]-iloprost binding, Assay 1; iloprost-induced cAMP production, Assay 2). The conditions noted are these: compounds of about 40 to 90% purity, read-out: In vitro activity grade (IC50 class). Put shortly: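 For binding (Assay 1), 1×10^6 HEL 92.1.7 cells in 50 mM Tris-HCl, 5 mM MgCl2, pH 7.5 were incubated with [3H]-iloprost (0.02 μCi) for 30 min at RT and filter-counted; a 100 μM iloprost solution defined non-specific binding. Compounds were of 40-90% purity.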
Background: cAMP levels reflect the balance of adenylyl cyclase and phosphodiesterase activity.

The structures appear in SMILES notation.

T1 sequence (P43119 whole entry): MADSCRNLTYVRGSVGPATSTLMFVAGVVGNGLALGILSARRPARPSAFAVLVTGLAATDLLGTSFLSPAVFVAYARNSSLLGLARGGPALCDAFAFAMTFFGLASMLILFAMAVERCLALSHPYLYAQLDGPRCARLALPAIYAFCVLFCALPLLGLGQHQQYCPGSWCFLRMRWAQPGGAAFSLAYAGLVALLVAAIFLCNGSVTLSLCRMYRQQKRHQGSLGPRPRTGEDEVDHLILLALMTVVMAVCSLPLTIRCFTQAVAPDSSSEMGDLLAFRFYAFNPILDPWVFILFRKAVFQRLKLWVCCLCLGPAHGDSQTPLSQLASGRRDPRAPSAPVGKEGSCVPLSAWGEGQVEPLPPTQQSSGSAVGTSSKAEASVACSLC

`O=C(O)C(Cc1ccccc1)Nc1cc(-c2ccc(-c3cccc4ccccc34)cc2)ncn1` (stereo not shown) [Example 11-7]: the melting point was 135 to 138 °C (dec.). In addition, at IP receptor, the IC50 lay in the range of 100 to 1000 nM.
`O=C(O)C(Cc1ccccn1)Nc1cc(-c2ccc(OCc3ccccc3)cc2)ncn1` (stereo not shown) [Example 1-31]: the melting point was in the range of 218 to 223 °C. Moreover, at IP receptor, the IC50 is less than 100 nM.
The like results for `O=C(O)[C@@H](Cc1ccccc1)Nc1cc(-c2ccc(OCC3CC3)cc2)ncn1` [Example 1-2, N-{6-[4-(Cyclopropylmethoxy)phenyl]pyrimidin-4-yl}-D-phenylalanine] were, in that order, 180 to 183 °C (dec.) and less than 100 nM.
The like results for `CCCCOc1ccc(-c2cc(NC(Cc3ccccc3)C(=O)O)ncn2)cc1` (stereo not shown) [Example 2-10] were, in that order, 205 to 208 °C and less than 100 nM.
The like results for `O=C(O)C(Cc1ccccn1)Nc1cc(-c2ccc(OCC3CC3)cc2)ncn1` (stereo not shown) [Example 1-44] were, in that order, 105 to 107 °C and 100 to 1000 nM.
Take `COCCOc1ccc(-c2cc(NC(Cc3ccccc3)C(=O)O)ncn2)cc1` (stereo not shown) [Example 2-24]: the melting point is 190 to 193 °C (dec.). In addition, the IC50 on IP receptor is less than 100 nM.
The matching figures for `O=C(c1ccc(Cl)cc1)c1ccc(-c2cc(NC(Cc3ccccc3)C(=O)O)ncn2)cc1` (stereo not shown) [Example 17-5]: 123 to 126 °C and less than 100 nM.
In the case of `O=C(O)C(Cc1ccccc1)Nc1ncnc(-c2ccc(OCC3CC3)cc2)c1F` (stereo not shown) [Example 1-36], the melting point lay in the range of 170 to 173 °C. In addition, the half-inhibitory concentration (IC50) on IP receptor was less than 100 nM.
The matching figures for `O=C(O)C(Cc1ccccc1)Nc1cncc(-c2ccc(OCc3ccccc3)cc2)n1` (stereo not shown) [Example 3-2]: 89 to 92 °C and greater than 1000 nM.
The like results for `O=C(O)C(Cc1ccccc1)Nc1cc(-c2ccc(OCc3ccccc3)cc2F)ncn1` (stereo not shown) [Example 1-57] were, in that order, 133 to 136 °C and 100 to 1000 nM.
The like results for `O=C(O)C(Cc1ccc(Cl)cc1)Nc1cc(-c2ccc(OCc3ccccc3)cc2)ncn1` (stereo not shown) [Example 1-22] were, in that order, 150 to 153 °C (dec.) and less than 100 nM.
On to `O=C(O)C(Cc1ccccc1)Nc1cccc(-c2ccc(OCc3ccccc3)nc2)c1` (stereo not shown) [Example 25-2], for which the melting point lay in the range of 150 to 153 °C. Further, the IC50 on IP receptor was 100 to 1000 nM.
`O=C(O)C(Cc1ccccc1)Nc1cc(-c2ccc(OCCc3ccccn3)cc2)ncn1` (stereo not shown) [Example 2-26]: the melting point is 120 to 122 °C (dec.). In addition, on IP receptor, the IC50 is less than 100 nM.
The like results for `O=C(O)[C@H](Cc1ccccc1)Nc1cc(-c2ccc(C#Cc3ccccc3)cc2)ncn1` [Example 9-1, N-{6-[4-(Phenylethynyl)phenyl]pyrimidin-4-yl}phenylalanine] were, in that order, 215 to 218 °C (dec.) and less than 100 nM.
The matching figures for `COc1cccc(-c2ccc(-c3cc(NC(Cc4ccccc4)C(=O)O)ncn3)cc2)c1` (stereo not shown) [Example 11-4]: 112 to 114 °C (dec.) and less than 100 nM.
The like results for `CCCCC(Nc1cc(-c2ccc(OCc3cc(OC)cc(OC)c3)cc2)ncn1)C(=O)O` (stereo not shown) [Example 2-45] were, in that order, 88 to 93 °C and less than 100 nM.
As to `O=C(Nc1ccccc1)c1ccc(-c2cc(NC(Cc3ccccc3)C(=O)O)ncn2)cc1` (stereo not shown) [Example 1-5], the melting point is 228 to 231 °C (dec.). In addition, the IC50 on IP receptor is 100 to 1000 nM.
The like results for `O=C(O)C(Cc1ccccc1)Nc1cc(-c2ccc(OCCc3ccncc3)cc2)ncn1` (stereo not shown) [Example 2-27] were, in that order, 113 to 115 °C and less than 100 nM.
The matching figures for `O=Cc1c(N[C@@H](Cc2ccccc2)C(=O)O)ncnc1-c1ccc(OCc2ccccc2)cc1` [Example 22-1, N-{6-[4-(Benzyloxy)phenyl)-5-formylpyrimidin-4-yl}phenylalanine]: greater than 300 °C and 100 to 1000 nM.
The like results for `O=C(O)C(Cc1ccccc1)Nc1cc(-c2ccc(CNCc3ccccc3)cc2)ncn1` (stereo not shown) [Example 19-2] were, in that order, 173 to 176 °C (dec.) and 100 to 1000 nM.
The compound `CN(C)CCOc1cccc(C[C@H](Nc2cc(-c3ccc(OCc4ccccc4)cc3)ncn2)C(=O)O)c1` [Example 4-1, N-{6-[4-(Benzyloxy)phenyl]pyrimidin-4-yl}-3-[2-(dimethylamino)ethoxy]phenylalanine] gave a melting point of 143.1 °C. Also, the IC50 at IP receptor is less than 100 nM.
The matching figures for `O=C(O)C(Cc1ccccc1)Nc1cc(-c2ccc(OCC3CCCC3)cc2)ncn1` (stereo not shown) [Example 2-20]: 125 to 128 °C and less than 100 nM.
The matching figures for `O=C(O)C(Cc1ccccc1)Nc1cccc(-c2ccc(OCc3ccccc3F)cc2)c1` (stereo not shown) [Example 24-4]: 158 to 161 °C and less than 100 nM.
The matching figures for `CCCCC(Nc1cc(-c2ccc(OCC3CC3)cc2)ncn1)C(=O)O` (stereo not shown) [Example 1-41]: 100 to 104 °C and 100 to 1000 nM.
`O=C(O)C(Cc1ccccc1)Nc1cc(-c2ccc(OCCc3ccccc3)cc2)ncn1` (stereo not shown) [Example 2-16]: the melting point was 214 to 216 °C (dec.). Besides, the IC50 on IP receptor was less than 100 nM.
The like results for `NCCOc1cccc(C[C@H](Nc2cc(-c3ccc(OCc4ccccc4)cc3)ncn2)C(=O)O)c1` [Example 5-1, 3-(2-Aminoethoxy)-N-{6-[4-(benzyloxy)phenyl]pyrimidin-4-yl}phenylalanine] were, in that order, 153.8 °C and less than 100 nM.
The compound `COc1cccc(COc2ccc(-c3cccc(N[C@@H](Cc4ccccc4)C(=O)O)c3)cc2)c1` [Example 24-2, N-{4′-[(3-Methoxybenzyl)oxy]biphenyl-3-yl}phenylalanine] came in with a melting point of 159 to 162 °C. For the same compound, the IC50 on IP receptor is less than 100 nM.
The like results for `O=C(O)C(Cc1ccc(F)cc1)Nc1cc(-c2ccc(OCc3ccccc3)cc2)ncn1` (stereo not shown) [Example 1-12] were, in that order, 186 °C and less than 100 nM.
The compound `COc1cc(-c2ccc(-c3cc(NC(Cc4ccccc4)C(=O)O)ncn3)cc2)cc(OC)c1OC` (stereo not shown) [Example 11-12] showed a melting point of 120 to 123 °C. At IP receptor, the IC50 lay within 100 to 1000 nM.
Compound `O=C(c1ccccc1)c1ccc(-c2cc(N[C@@H](Cc3ccccc3)C(=O)O)ncn2)cc1` [Example 17-1, N-[6-(4-Benzoylphenyl)pyrimidin-4-yl]phenylalanine] had a melting point of 109 to 111 °C. In addition, the IC50 on IP receptor was less than 100 nM.
The like results for `COc1ccccc1-c1ccc(-c2cc(NC(Cc3ccccc3)C(=O)O)ncn2)cc1` (stereo not shown) [Example 11-10] were, in that order, 121 to 123 °C (dec.) and 100 to 1000 nM.
The like results for `O=C(O)C(Cc1cccnc1)Nc1cc(-c2ccc(OCc3ccccc3)cc2)ncn1` (stereo not shown) [Example 1-48] were, in that order, 188 to 192 °C and less than 100 nM.
The like results for `O=C(O)C(CC(F)(F)F)Nc1cc(-c2ccc(OCc3ccccc3)cc2)ncn1` (stereo not shown) [Example 1-32] were, in that order, 156 to 158 °C and less than 100 nM.
With `O=C(O)C(Cc1ccccn1)Nc1cc(-c2ccc(OCc3ccccc3F)cc2)ncn1` (stereo not shown) [Example 2-32], the melting point lay within 84 to 87 °C. Moreover, the IC50 at IP receptor was less than 100 nM.
For `O=C(O)C(Cc1ccccc1)Nc1cc(-c2ccc(OCCc3cccnc3)cc2)ncn1` (stereo not shown) [Example 2-23], the melting point was 85 to 88 °C. In addition, the IC50 on IP receptor was less than 100 nM.

The term IC50 denotes the point on the concentration scale where inhibition reaches its midpoint. What is called melting point is the temperature, or range, at which the solid turns liquid.
